In one assay the test system is T1, laccase.
T1 construct: gene LCC2
The settings on record: free enzyme; 50 mM acetate buffer pH 5; apparent.

Assay [1] relates to T2, horseradish peroxidase (HRP).
T2 construct: gene PRXC1A
Conditions: free enzyme; 50 mM phosphate buffer pH 7; co-substrate H2O2 (10 mM); apparent.

By Km is commonly meant the substrate concentration at which the rate is half of its maximum.

Where a name gives a salt, the structure may show the parent alone.

Consider `CCn1c(=NN=c2sc3cc(S(=O)(=O)O)ccc3n2CC)sc2cc(S(=O)(=O)O)ccc21` [2,2′-azino-bis(3-ehylbenzothiazoline-6-sulfonic acid), diammonium salt], for which the Km in the assay with laccase turned out to be 87 µM; in assay [1], 1330 µM.

The values are drawn from article PMC9699638, “Study of Membrane-Immobilized Oxidoreductases in Wastewater Treatment for Micropollutants Removal” (International Journal of Molecular Sciences, 2022).
